Results taken from US8802597B2, “Herbicidal pyrimidines” (E I du Pont de Nemours and Company, priority 2003, dated 2014).

Key:
Format in all cases: in vivo
[1] = tested on: barnyardgrass (Echinochloa crus-galli); experiment: Test B flooded paddy test; details: Flood, 1000 g ai/ha; scale 0 (no effect) to 100 (complete control)
In short: (§1)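 Rice, umbrella sedge, duck salad and barnyardgrass grown to 2-leaf stage under flooded paddy conditions and treated with formulated test chemicals. Kept in greenhouse 13–15 days, then visually rated against untreated controls on a 0–100 scale (0 no effect, 100 complete control).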

[2] = tested on: umbrella sedge (Cyperus difformis); experiment: Test B flooded paddy test; details: Flood, 1000 g ai/ha; scale 0 to 100
In short: as §1

rice (Oryza sativa) = experiment: Test B flooded paddy test; details: Flood, 1000 g ai/ha; scale 0 to 100
In short: as §1

[3] = tested on: duck salad (Heteranthera limosa); experiment: Test B flooded paddy test; details: Flood, 1000 g ai/ha; scale 0 to 100
In short: as §1

wild oat (Avena fatua) = experiment: Test B postemergence; details: for Oat, Wild plant response rating: 125 g ai/ha, scale 0 to 100 (0 no effect, 100 complete control); for Plant response rating, Oat, Wild: 500 g ai/ha, scale 0 to 100
In short: (§2)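 Test chemicals in a non-phytotoxic solvent mixture with surfactant were applied preemergence to planted seeds and postemergence to plants 2 to 18 cm tall (1- to 4-leaf stage). After 13 to 15 days in a greenhouse, injury was visually rated against untreated controls on a 0 to 100 scale.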

[4] = tested on: blackgrass (Alopecurus myosuroides); experiment: Test B postemergence; details: for Blackgrass plant response rating: 125 g ai/ha, scale 0 to 100 (0 no effect, 100 complete control); for Plant response rating, Blackgrass: 500 g ai/ha, scale 0 to 100
In short: as §2

[5] = tested on: barnyardgrass (Echinochloa crus-galli); experiment: Test B pre/postemergence
Description: (§3) Seeds selected from barnyardgrass (Echinochloa crus-galli), Surinam grass (Brachiaria decumbens), cocklebur (Xanthium strumarium), corn (Zea mays), crabgrass (Digitaria sanguinalis), giant foxtail (Setaria faberii), lambsquarters (Chenopodium album), morningglory (Ipomoea coccinea), pigweed (Amaranthus retroflexus), velvetleaf (Abutilon theophrasti), and wheat (Triticum aestivum) were planted and treated preemergence with test chemicals formulated in a non-phytotoxic solvent mixture which included a surfactant.
(§4) At the same time, plants selected from these crop and weed species and also blackgrass (Alopecurus myosuroides) and wild oat (Avena fatua) were treated with postemergence applications of test chemicals formulated in the same manner. Plants ranged in height from 2 to 18 cm (1- to 4-leaf stage) for postemergence treatments. Plant species in the flooded paddy test consisted of rice (Oryza sativa), umbrella sedge (Cyperus difformis), duck salad (Heteranthera limosa) and barnyardgrass (Echinochloa crus-galli) grown to the 2-leaf stage for testing. Treated plants and controls were maintained in a greenhouse for 13 to 15 days, after which time all species were compared to controls and visually evaluated. Plant response ratings, summarized in Table B, are based on a scale of 0 to 100 where 0 is no effect and 100 is complete control. A dash (-) response means no test result.

[6] = tested on: morningglory (Ipomoea coccinea); experiment: Test B pre/postemergence
Description: as §3, §4

[7] = tested on: lambsquarters (Chenopodium album); experiment: Test B pre/postemergence
Description: as §3, §4

[8] = tested on: giant foxtail (Setaria faberii); experiment: Test B pre/postemergence
Description: as §3, §4

[9] = tested on: crabgrass (Digitaria sanguinalis); experiment: Test B pre/postemergence
Description: as §3, §4

corn (Zea mays) = experiment: Test B pre/postemergence
Description: as §3, §4

[10] = tested on: cocklebur (Xanthium strumarium); experiment: Test B pre/postemergence
Description: as §3, §4

[11] = tested on: wheat (Triticum aestivum); experiment: Test B pre/postemergence
Description: as §3, §4

[12] = tested on: velvetleaf (Abutilon theophrasti); experiment: Test B pre/postemergence
Description: as §3, §4

[13] = tested on: Surinam grass (Brachiaria decumbens); experiment: Test B pre/postemergence
Description: as §3, §4

[14] = tested on: pigweed (Amaranthus retroflexus); experiment: Test B pre/postemergence
Description: as §3, §4

[15] = Postemergence, 125 g ai/ha, scale 0 to 100 (0 no effect, 100 complete control)
[16] = Postemergence, 500 g ai/ha, scale 0 to 100
[17] = Preemergence, 125 g ai/ha, scale 0 to 100 (0 no effect, 100 complete control)
[18] = Preemergence, 500 g ai/ha, scale 0 to 100 (0 no effect, 100 complete control)

CON=Cc1nc(C2CC2)nc(N)c1Br [Compound 48]
70: Plant response rating, Lambsquarters [7, 17]
80: Plant response rating, Morningglory [6, 16] | Plant response rating, Lambsquarters [7, 16] | Plant response rating, Cocklebur [10, 16] | Plant response rating, Pigweed [14, 16] | Pigweed plant response rating [14, 18]
60: Lambsquarters plant response rating [7, 15] | Plant response rating, Velvetleaf [12, 16] | Surinam Grass plant response rating [13, 18] | Pigweed plant response rating [14, 15] | Plant response rating, Pigweed [14, 17]
100: Lambsquarters plant response rating [7, 18]
0: Plant response rating, Sedge, Umbrella [2] | Plant response rating, Rice (rice (Oryza sativa)) | Oat, Wild plant response rating (wild oat (Avena fatua)) | Blackgrass plant response rating [4] | Plant response rating, Barnyardgrass [5, 17] | Plant response rating, Morningglory [6, 17] | Corn plant response rating (corn (Zea mays); [15]) | Plant response rating, Corn (corn (Zea mays); [16]) | Plant response rating, Corn (corn (Zea mays); [17]) | Corn plant response rating (corn (Zea mays); [18]) | Plant response rating, Cocklebur [10, 17] | Wheat plant response rating [11, 15] | Plant response rating, Wheat [11, 17] | Plant response rating, Velvetleaf [12, 17] | Velvetleaf plant response rating [12, 18] | Surinam Grass plant response rating [13, 15]
30: Morningglory plant response rating [6, 15] | Morningglory plant response rating [6, 18] | Plant response rating, Foxtail, Giant [8, 17] | Plant response rating, Wheat [11, 18] | Plant response rating, Surinam Grass [13, 17]
50: Foxtail, Giant plant response rating [8, 18]
20: Plant response rating, Barnyardgrass [1] | Plant response rating, Ducksalad [3] | Plant response rating, Oat, Wild (wild oat (Avena fatua)) | Plant response rating, Blackgrass [4] | Plant response rating, Barnyardgrass [5, 16] | Plant response rating, Crabgrass [9, 16] | Cocklebur plant response rating [10, 15] | Cocklebur plant response rating [10, 18] | Plant response rating, Wheat [11, 16]
10: Barnyardgrass plant response rating [5, 15] | Barnyardgrass plant response rating [5, 18] | Foxtail, Giant plant response rating [8, 15] | Plant response rating, Foxtail, Giant [8, 16] | Crabgrass plant response rating [9, 15] | Plant response rating, Crabgrass [9, 17] | Velvetleaf plant response rating [12, 15] | Plant response rating, Surinam Grass [13, 16]

CC=NNc1nc(C2CC2)nc(C(=O)OC)c1Br [Compound 124]
100: Plant response rating, Morningglory [6, 16]
90: Plant response rating, Lambsquarters [7, 16] | Plant response rating, Pigweed [14, 16]
60: Plant response rating, Morningglory [6, 18] | Plant response rating, Cocklebur [10, 18]
50: Morningglory plant response rating [6, 15] | Plant response rating, Velvetleaf [12, 16] | Plant response rating, Velvetleaf [12, 18] | Pigweed plant response rating [14, 15]
20: Plant response rating, Foxtail, Giant [8, 16] | Velvetleaf plant response rating [12, 15] | Plant response rating, Velvetleaf [12, 17] | Plant response rating, Pigweed [14, 17]
40: Plant response rating, Blackgrass [4] | Plant response rating, Barnyardgrass [5, 16] | Lambsquarters plant response rating [7, 15] | Plant response rating, Crabgrass [9, 16]
30: Plant response rating, Oat, Wild (wild oat (Avena fatua)) | Cocklebur plant response rating [10, 15] | Plant response rating, Wheat [11, 16]
70: Plant response rating, Lambsquarters [7, 18] | Plant response rating, Pigweed [14, 18]
10: Plant response rating, Morningglory [6, 17] | Foxtail, Giant plant response rating [8, 15] | Crabgrass plant response rating [9, 15] | Plant response rating, Cocklebur [10, 17]
80: Plant response rating, Cocklebur [10, 16]
0: Plant response rating, Barnyardgrass [1] | Plant response rating, Sedge, Umbrella [2] | Plant response rating, Rice (rice (Oryza sativa)) | Plant response rating, Ducksalad [3] | Oat, Wild plant response rating (wild oat (Avena fatua)) | Blackgrass plant response rating [4] | Barnyardgrass plant response rating [5, 15] | Plant response rating, Barnyardgrass [5, 17] | Plant response rating, Barnyardgrass [5, 18] | Plant response rating, Lambsquarters [7, 17] | Plant response rating, Foxtail, Giant [8, 17] | Plant response rating, Foxtail, Giant [8, 18] | Plant response rating, Crabgrass [9, 17] | Plant response rating, Crabgrass [9, 18] | Corn plant response rating (corn (Zea mays); [15]) | Plant response rating, Corn (corn (Zea mays); [16]) | Plant response rating, Corn (corn (Zea mays); [17]) | Plant response rating, Corn (corn (Zea mays); [18]) | Wheat plant response rating [11, 15] | Plant response rating, Wheat [11, 17] | Plant response rating, Wheat [11, 18] | Surinam Grass plant response rating [13, 15] | Plant response rating, Surinam Grass [13, 16] | Plant response rating, Surinam Grass [13, 17] | Plant response rating, Surinam Grass [13, 18]
